For one experiment, the target named is T1, TPO receptor (Homo sapiens, UniProt P40238).
T1 sequence (P40238 26-635): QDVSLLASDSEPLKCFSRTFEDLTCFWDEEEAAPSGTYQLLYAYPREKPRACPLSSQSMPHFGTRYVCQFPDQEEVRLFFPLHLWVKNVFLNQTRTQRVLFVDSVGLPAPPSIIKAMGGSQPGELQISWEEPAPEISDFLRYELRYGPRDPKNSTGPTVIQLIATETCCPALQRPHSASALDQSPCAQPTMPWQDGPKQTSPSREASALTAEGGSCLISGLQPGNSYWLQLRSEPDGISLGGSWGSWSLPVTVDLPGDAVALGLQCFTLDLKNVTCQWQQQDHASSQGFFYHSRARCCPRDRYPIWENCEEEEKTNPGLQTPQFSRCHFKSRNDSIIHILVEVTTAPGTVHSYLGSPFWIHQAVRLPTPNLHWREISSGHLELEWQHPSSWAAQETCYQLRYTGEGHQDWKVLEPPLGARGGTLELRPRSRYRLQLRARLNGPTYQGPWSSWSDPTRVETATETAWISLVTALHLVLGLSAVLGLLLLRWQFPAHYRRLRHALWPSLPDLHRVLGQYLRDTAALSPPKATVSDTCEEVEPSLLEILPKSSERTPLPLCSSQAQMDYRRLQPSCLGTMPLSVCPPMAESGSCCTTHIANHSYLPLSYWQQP
The experiment is described as follows: microphysiometer assay: rate of acidification of the extracellular medium in response to TPO receptor stimulation. Type of experiment: cell-based. The conditions noted are these: Table 9; read-out: EC50 (nM) Microphys.

In the next experiment the target is T2, TPO-R (Homo sapiens, UniProt P40238).
T2 construct: made in house
T2 sequence (P40238 26-491 limits assumed): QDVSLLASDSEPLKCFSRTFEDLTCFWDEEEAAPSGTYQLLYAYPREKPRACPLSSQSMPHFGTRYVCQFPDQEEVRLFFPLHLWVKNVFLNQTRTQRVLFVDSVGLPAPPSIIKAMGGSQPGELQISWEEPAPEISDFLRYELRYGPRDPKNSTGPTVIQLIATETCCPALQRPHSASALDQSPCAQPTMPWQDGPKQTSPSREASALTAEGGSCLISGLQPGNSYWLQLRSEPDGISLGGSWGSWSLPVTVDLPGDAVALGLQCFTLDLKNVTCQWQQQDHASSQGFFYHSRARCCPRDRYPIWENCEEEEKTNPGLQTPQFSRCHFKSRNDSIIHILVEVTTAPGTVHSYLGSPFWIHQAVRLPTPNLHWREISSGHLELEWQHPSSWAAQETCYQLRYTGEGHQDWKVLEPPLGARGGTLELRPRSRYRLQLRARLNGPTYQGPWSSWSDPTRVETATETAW
In words: competition binding assay: MBP-TPO156 binding to immobilized TPO-R (ELISA). The conditions noted are these: read-out: IC50. Here is the method:
A variety of methods can be used to evaluate IC50 values. For example, an equilibrium binding ELISA assay, using either MBP-TPO or lacI-peptide tracer, was used to determine whether the peptides inhibit the binding of TPO to the extracellular domain of the TPO receptor. Typically, the IC50 value were determined using the free peptide. The IC50value can be determined using the free peptide, which optionally can be C-terminally amidated, or can be prepared as an ester or other carboxy amide.
Binding affinities of chemically synthesized peptides for TPO-R were measured in a competition binding assay. The wells of a microtiter plate were coated with 1 mg streptavidin, blocked with PBS/1% BSA, followed by 50 ng of biotinylated anti-receptor immobilizing antibody (Ab179). The wells were then treated with a 1:10 dilution of soluble TPO-R harvest. Various concentrations of peptide or peptide mimetic were mixed with a constant amount of a truncated form of TPO consisting of residues 1–156 fused to the C-terminus of maltose binding protein (MBP-TPO156). The peptide MBP-TPO156 mixtures were added to the TPO-R coated wells, incubated for 2 hours at 4° C. and then washed with PBS. The amount of MBP-TPO156 that was bound at equilibrium was measured by adding a rabbit anti-sera directed against MBP, followed by alkaline phosphatase conjugated goat anti-rabbit IgG. The amount of alkaline phosphatase in each well was then determined using standard methods.
The assay is conducted over a range of peptide concentrations and the results are graphed such that the y axis represents the amount of bound MBP-TPO156 and the x axis represents the concentration of peptide or peptide mimetic.
For orientation: In an ELISA, binding on a coated surface is turned into a signal by an enzyme label.

A further experiment has as its target T3, human TPO-R (Homo sapiens, UniProt P40238).
T3 construct: transfected with full length human TPO-R; expressed in transfected cells; host or cells: murine Ba/F3 cells
T3 sequence (P40238 26-635): T1 sequence (P40238 26-635)
In words: thrombopoietin dependent cell proliferation assay, TPO-R transfected Ba/F3 cells (MTT). It counts as cell-based.

Experiment [1] has as its system marrow cells. The experiment is described as follows: mouse marrow cells in liquid culture, AChE-staining megakaryocytes. It counts as cell-based, Balb/C mice. Here is the method: To assess the feasibility of mice as a convenient test species, several in vitro experiments, designed to measure the activity of the test compounds on the mouse receptor, have been done. First, marrow cells, harvested from the femurs of 8 to 9 week one Balb/C mice, were incubated for 7 days in liquid culture with either rhuTPO or various concentrations of the test peptides. At the end of the incubation period, the cultures were concentrated by Cytospin, stained for acetylcholinesterase (AChE, a diagnostic of mouse megakaryocytes), and counted by microscopic analysis. One (1) nM rhuTPO gave rise to the outgrowth of very large (>40 um) non-adherent cells that stain for AChE. These cells appear to be mature megakaryocytes. From an initial seeding of 10^6 total marrow cells/ml (in 50 ml cultures) an estimated 1 to 2×10^6 megakaryocytes developed. This response to TPO was designated as “maximal”. Control cultures containing no added growth factors produced very few AChE-positive cells. […] This finding was the first evidence that this peptide family is active on the murine receptor. In a second experiment, marrow cells were harvested and cultured in semi-solid medium (methylcellulose) containing either no factors, 1 nM rhuTPO, or 10 uM Peptide A. After 7 days in culture, colonies of large cell (presumed to be megakaryocytes) were counted and grouped into small colonies (3–5 cells) or large colonies (greater than 6 cells). TPO and the test peptides both produced substantially more colonies of both sized than did the negative control cultures.

The test system of experiment [2] is marrow cells. In words: marrow cells in semi-solid medium (methylcellulose), colonies of large cells. It counts as cell-based, Balb/C mice. The conditions noted are these: 1 nM TPO; 7 days in methylcellulose; replicate cultures. Here is the method: To assess the feasibility of mice as a convenient test species, several in vitro experiments, designed to measure the activity of the test compounds on the mouse receptor, have been done. First, marrow cells, harvested from the femurs of 8 to 9 week one Balb/C mice, were incubated for 7 days in liquid culture with either rhuTPO or various concentrations of the test peptides. At the end of the incubation period, the cultures were concentrated by Cytospin, stained for acetylcholinesterase (AChE, a diagnostic of mouse megakaryocytes), and counted by microscopic analysis. One (1) nM rhuTPO gave rise to the outgrowth of very large (>40 um) non-adherent cells that stain for AChE. These cells appear to be mature megakaryocytes. From an initial seeding of 10^6 total marrow cells/ml (in 50 ml cultures) an estimated 1 to 2×10^6 megakaryocytes developed. This response to TPO was designated as “maximal”. Control cultures containing no added growth factors produced very few AChE-positive cells. […] In a second experiment, marrow cells were harvested and cultured in semi-solid medium (methylcellulose) containing either no factors, 1 nM rhuTPO, or 10 uM Peptide A. After 7 days in culture, colonies of large cell (presumed to be megakaryocytes) were counted and grouped into small colonies (3–5 cells) or large colonies (greater than 6 cells). […]

[3] abbreviates: Table 9, read-out: EC50 (nM) Prolif.

The EC50 is the concentration at which the effect is half-maximal. Broadly, the IC50 is the concentration at which inhibition is half-maximal.

“And” between values parts separate entries of the source, which are not always exact repeats. Identical values can stand only once. Like-named read-outs stand apart in the source and are kept apart here.

Experimental for TPO receptor: In this example cyclized compounds were subjected to three assays. […] Finally, a microphysiometer (Molecular Devices Corp.) assay was performed. […] The ranges for EC50 are symbolically indicated as for IC50 described above.
Experimental for human TPO-R: Bioactivity of the peptides can be measured using a thrombopoietin dependent cell proliferation assay. Murine IL-3 dependent Ba/F3 cells were transfected with full length human TPO-R. In the absence of IL-3 (WEHI-3 conditioned media), these cells are dependent on TPO for proliferation.
The cells were grown in complete RPMI-10 media, containing 10% WEHI-3 conditioned media, then washed twice in PBS, resuspended in media which lacked WEHI-3 conditioned media, and added to wells containing dilutions of peptide or TPO at 2×10^4 cells/well. The cells were incubated for 48 hours at 37° C. in a humidified 5% Co2 atmosphere and metabolic activity was assayed by the reduction of MTT to formazan, with absorbance at 570 nm measured on an ELISA plate reader.

On to `CC[C@H](C)[C@H](N)C(=O)N[C@@H](CCC(=O)O)C(=O)NCC(=O)N1CCC[C@H]1C(=O)N[C@H](C(=O)N[C@@H](CC(C)C)C(=O)N[C@@H](CCCNC(=N)N)C(=O)N[C@@H](CCC(N)=O)C(=O)N[C@@H](Cc1c[nH]c2ccccc12)C(=O)N[C@@H](CC(C)C)C(=O)N[C@@H](C)C(=O)N[C@@H](C)C(=O)N[C@@H](CCCNC(=N)N)C(=O)N[C@@H](C)C(=O)NCCCC[C@H](NC(=O)CCNC(=O)[C@H](C)NC(=O)[C@H](CCCNC(=N)N)NC(=O)[C@H](C)NC(=O)[C@H](C)NC(=O)[C@H](CC(C)C)NC(=O)[C@H](Cc1c[nH]c2ccccc12)NC(=O)[C@H](CCC(N)=O)NC(=O)[C@H](CCCNC(=N)N)NC(=O)[C@H](CC(C)C)NC(=O)[C@@H](NC(=O)[C@@H]1CCCN1C(=O)CNC(=O)[C@H](CCC(=O)O)NC(=O)[C@@H](N)[C@@H](C)CC)[C@@H](C)O)C(N)=O)[C@@H](C)O`, for which the EC50 was at most 500 nM at TPO receptor; at most 500 nM at human TPO-R (setting [3]); at most 500 nM at human TPO-R (Table 10, value outside parentheses, read-out: EC50 (nM) Cell Prolif.). In addition, the concentration for half-maximal inhibition (IC50) is at most 500 nM on TPO-R (Table 7, dimer compounds) and at most 500 nM on TPO-R (Table 9).
For H-IEGPTLRQWLAARA-NH2, on TPO-R (Table 9), the IC50 is at most 500 nM. Moreover, the half-maximal effective concentration (EC50) at human TPO-R (setting [3]) was at most 500 nM.
Regarding “S.A. alone: streptavidin alone [reference compound]”, in the experiment on marrow cells [1] (concentration tested 1000 nM (putative 1:4 complex), 7 days, maximal = compared to recombinant human TPO, 25–30% ACE staining cells), the “Response (AChE-staining megakaryocytes)” value is “none”.
As for TPO (R & D): recombinant human TPO, in the experiment with marrow cells [1] (1 nM rhuTPO, initial seeding 10^6 total marrow cells/ml in 50 ml cultures, 7 days), the “megakaryocytes developed (estimated)” value is reported as 1 to 2×10^6. Further, in the experiment with marrow cells [1] (concentration tested 1 nM, 7 days liquid culture), the “Response (AChE-staining megakaryocytes)” value is ““maximal””. In the experiment with marrow cells [2], the “large colonies, 6–12 large cells” value is 6 and 1 and 8 and 3; the “small colonies, 3–5 large cells” value was 15 and 12 and 16 and 13.

The values above are taken from patent US7091311B2, “Peptides and compounds that bind to a receptor” (SmithKline Beecham Corporation, priority 1996, dated 2006).
